{"source": "patent US6156789A", "about": "“Method for treating abnormal cell proliferation in the brain” (Rhone-Poulenc Rorer S.A., priority 1998, dated 2000)", "assay": "Tissue distribution of Compound A in mice with mammary C/16 adenocarcinomas (first method: liver, heart, kidney, lung, spleen, tumor)", "type": "in vivo, C3H/HeN female mice", "parameters": "key to Percentage of Compound A (of dose) in Liver / Percentage of Compound A (of dose) in Heart / Percentage of Compound A (of dose) in Kidney / Percentage of Compound A (of dose) in Lung / Percentage of Compound A (of dose) in Spleen / Percentage of Compound A (of dose) in Tumor: --: not detected", "conditions": "for Kp at 0.5 h: 0.50 h", "protocol": "Mammary C/16 adenocarcinomas were implanted in C3H/HeN female mice. At least 7 days later, 4α,10β-diacetoxy-2α-benzoyloxy-5β,20-epoxy-1β-hydroxy-7β,8β-methylene-9-oxo-19-nor-11-taxen-13α-yl (2R,3S)-3-tert-butoxycarbonylamino-2-hydroxy-3-phenylpropionate (\"Compound A\") was administered to groups of female mice at doses of 9.5, 15.4, 24.8, 40 or 60.5 mg/kg by intravenous injection under 0.4 or 0.5 ml/injection over 15 seconds. The body weight and date of implantation were recorded for each mouse. Blood and tissue samples were taken 2, 5, 15, 30 and 45 minutes and 1, 4, 14, 24 and 48 hours, after administration. The plasma was separated from the blood samples at 4° C. and frozen immediately. The tissue and tumors were weighed and frozen immediately (-20° C.).\nThe plasma and tissue samples were then analyzed for the concentration of Compound A. The plasma was assayed by high pressure liquid chromatography with spectrophotometric detection. For the tissue, liver, heart, kidney, lung, spleen and tumor tissue, samples were assayed by a first method, while a second method was used for the brain tissue analyzed. In the first method, 0.2 g of tissue was combined with 2 ml of sodium phosphate buffer 0.1 M (pH:7) and homogenized. The homogenate was centrifuged and 0.5 ml of supernatant was injected into the chromatographic column. In the second method, 10 μl of standard solution was combined with 0.2 g of brain tissue. 2 ml of methanol/5% perchloric acid (50/50) were added and the mixture was homogenized. The homogenate was centrifuged and 100 μl of supernatant was injected into the chromatographic column.", "key": {"[1]": {"conditions": "0.033 h, 40 μg/kg [sic], mice with tumors, single mice, 40 mg/kg, 1.98 min"}, "[2]": {"conditions": "mouse, heart/plasma, iv, 40 mg/kg, mice with tumors, single mice, read-out: Tissue/Plasma Ratio, HEART"}, "[3]": {"conditions": "mouse, kidney/plasma, iv, 40 mg/kg, 40 μg/kg [sic], mice with tumors, single mice, read-out: Tissue/Plasma Ratio, KIDNEY"}}, "note": "Values joined by “and” are separate entries in the source; they are usually repeats but may differ in a detail not shown here. Identical values can stand only once. Like-named read-outs stand apart in the source and are kept apart here.", "data": [{"smiles": "CC(=O)O[C@H]1C(=O)[C@]23C[C@H]2C[C@H]2OC[C@@]2(OC(C)=O)[C@H]3[C@H](OC(=O)c2ccccc2)[C@]2(O)C[C@H](OC(=O)[C@H](O)[C@@H](NC(=O)OC(C)(C)C)c3ccccc3)C(C)=C1C2(C)C", "note": "[Compound A, 4α,10β-diacetoxy-2α-benzoyloxy-5β,20-epoxy-1β-hydroxy-7β,8β-methylene-9-oxo-19-nor-11-taxen-13α-yl (2R,3S)-3-tert-butoxycarbonylamino-2-hydroxy-3-phenylpropionate]", "values": [{"measurement": "distribution in tissues sampled", "setting": "40 mg/kg i.v.", "value": "quickly distributed in all tissues sampled"}, {"measurement": "percentage (concentration) in sampled tissue over time", "setting": "40 mg/kg i.v., first few hours, except tumor and brain tissue", "value": "fell off rapidly over the first few hours following drug administration, except in the tumor and brain tissue"}, {"measurement": "uptake of the drug", "setting": "40 mg/kg i.v., mice with mammary carcinoma", "value": "fast uptake of the drug"}, {"measurement": "drug present at 0.033 h cleared in one hour", "setting": "40 mg/kg i.v., rapid phase, except tumor and brain tissue", "value": 70, "unit": "%"}, {"measurement": "Tissue/Plasma Ratio, KIDNEY", "setting": "[1]", "value": "1.25 and 1.20"}, {"measurement": "Tissue/Plasma Ratio, LIVER", "setting": "[1]", "value": 0.91}, {"measurement": "Tissue/Plasma Ratio, SPLEEN", "setting": "[1]", "value": "0.42 and 0.43 and 0.41"}, {"measurement": "Percentage of Compound A (of dose) in Heart", "setting": "0.033 h, 40 mg/kg", "value": 0.46, "unit": "%"}, {"measurement": "Percentage of Compound A (of dose) in Kidney", "setting": "0.033 h, 40 mg/kg", "value": 2.06, "unit": "%"}, {"measurement": "Percentage of Compound A (of dose) in Liver", "setting": "0.033 h, 40 mg/kg", "value": 9.73, "unit": "%"}, {"measurement": "Percentage of Compound A (of dose) in Lung", "setting": "0.033 h, 40 mg/kg", "value": 0.67, "unit": "%"}, {"measurement": "Percentage of Compound A (of dose) in Spleen", "setting": "0.033 h, 40 mg/kg", "value": 0.27, "unit": "%"}, {"measurement": "Percentage of Compound A (of dose) in Tumor", "setting": "0.033 h, 40 mg/kg", "value": 1.07, "unit": "%"}, {"measurement": "Percentage of Compound A (of dose) in tissues, Total", "setting": "0.033 h, 40 mg/kg", "value": 14.45, "unit": "%"}, {"measurement": "Tissue/Plasma Ratio, LUNG", "setting": "0.083 h, 40 μg/kg [sic], mice with tumors, single mice, 40 mg/kg, 4.98 min", "value": 0.69}, {"measurement": "Percentage of Compound A (of dose) in Heart", "setting": "1 h, 40 mg/kg", "value": 0.08, "unit": "%"}, {"measurement": "Percentage of Compound A (of dose) in Kidney", "setting": "1 h, 40 mg/kg", "value": 0.56, "unit": "%"}, {"measurement": "Percentage of Compound A (of dose) in Liver", "setting": "1 h, 40 mg/kg", "value": 2.10, "unit": "%"}, {"measurement": "Percentage of Compound A (of dose) in Lung", "setting": "1 h, 40 mg/kg", "value": 0.18, "unit": "%"}, {"measurement": "Percentage of Compound A (of dose) in Spleen", "setting": "1 h, 40 mg/kg", "value": 0.10, "unit": "%"}, {"measurement": "Percentage of Compound A (of dose) in Tumor", "setting": "1 h, 40 mg/kg", "value": 0.94, "unit": "%"}, {"measurement": "Percentage of Compound A (of dose) in tissues, Total", "setting": "1 h, 40 mg/kg", "value": 4.37, "unit": "%"}, {"measurement": "Percentage of Compound A (of dose) in Heart", "setting": "4 h, 40 mg/kg", "value": 0.03, "unit": "%"}, {"measurement": "Percentage of Compound A (of dose) in Kidney", "setting": "4 h, 40 mg/kg", "value": 0.23, "unit": "%"}, {"measurement": "Percentage of Compound A (of dose) in Liver", "setting": "4 h, 40 mg/kg", "value": 0.47, "unit": "%"}, {"measurement": "Percentage of Compound A (of dose) in Lung", "setting": "4 h, 40 mg/kg", "value": 0.08, "unit": "%"}, {"measurement": "Percentage of Compound A (of dose) in Spleen", "setting": "4 h, 40 mg/kg", "value": 0.05, "unit": "%"}, {"measurement": "Percentage of Compound A (of dose) in Tumor", "setting": "4 h, 40 mg/kg", "value": 0.37, "unit": "%"}, {"measurement": "Percentage of Compound A (of dose) in tissues, Total", "setting": "4 h, 40 mg/kg", "value": 1.62, "unit": "%"}, {"measurement": "Percentage of Compound A (of dose) in Heart", "setting": "24 h, 40 mg/kg", "value": "--"}, {"measurement": "Percentage of Compound A (of dose) in Kidney", "setting": "24 h, 40 mg/kg", "value": "--"}, {"measurement": "Percentage of Compound A (of dose) in Liver", "setting": "24 h, 40 mg/kg", "value": "--"}, {"measurement": "Percentage of Compound A (of dose) in Lung", "setting": "24 h, 40 mg/kg", "value": "--"}, {"measurement": "Percentage of Compound A (of dose) in Spleen", "setting": "24 h, 40 mg/kg", "value": "--"}, {"measurement": "Percentage of Compound A (of dose) in Tumor", "setting": "24 h, 40 mg/kg", "value": 0.09, "unit": "%"}, {"measurement": "Percentage of Compound A (of dose) in tissues, Total", "setting": "24 h, 40 mg/kg", "value": 0.42, "unit": "%"}, {"measurement": "Percentage of Compound A (of dose) in Heart", "setting": "48 h, 40 mg/kg", "value": "--"}, {"measurement": "Percentage of Compound A (of dose) in Kidney", "setting": "48 h, 40 mg/kg", "value": "--"}, {"measurement": "Percentage of Compound A (of dose) in Liver", "setting": "48 h, 40 mg/kg", "value": "--"}, {"measurement": "Percentage of Compound A (of dose) in Lung", "setting": "48 h, 40 mg/kg", "value": "--"}, {"measurement": "Percentage of Compound A (of dose) in Spleen", "setting": "48 h, 40 mg/kg", "value": "--"}, {"measurement": "Percentage of Compound A (of dose) in Tumor", "setting": "48 h, 40 mg/kg", "value": "--"}, {"measurement": "Percentage of Compound A (of dose) in tissues, Total", "setting": "48 h, 40 mg/kg", "value": 0.19, "unit": "%"}, {"measurement": "AUC 0-4 Hours, Heart", "setting": "dose = 40 mg/kg", "value": 24.8, "unit": "µg·h/g"}, {"measurement": "AUC 0-4 Hours, Kidney", "setting": "dose = 40 mg/kg", "value": 74.4, "unit": "µg·h/g"}, {"measurement": "AUC 0-4 Hours, Liver", "setting": "dose = 40 mg/kg", "value": 70.8, "unit": "µg·h/g"}, {"measurement": "AUC 0-4 Hours, Lung", "setting": "dose = 40 mg/kg", "value": 34.3, "unit": "µg·h/g"}, {"measurement": "AUC 0-4 Hours, Spleen", "setting": "dose = 40 mg/kg", "value": 34.6, "unit": "µg·h/g"}, {"measurement": "AUC 0-4 Hours, Tumor", "setting": "dose = 40 mg/kg", "value": 35.6, "unit": "µg·h/g"}, {"measurement": "AUC 0 to Infinity, Heart", "setting": "dose = 40 mg/kg", "value": 28, "unit": "µg·h/g"}, {"measurement": "AUC 0 to Infinity, Kidney", "setting": "dose = 40 mg/kg", "value": 121, "unit": "µg·h/g"}, {"measurement": "AUC 0 to Infinity, Liver", "setting": "dose = 40 mg/kg", "value": 93, "unit": "µg·h/g"}, {"measurement": "AUC 0 to Infinity, Lung", "setting": "dose = 40 mg/kg", "value": 52, "unit": "µg·h/g"}, {"measurement": "AUC 0 to Infinity, Spleen", "setting": "dose = 40 mg/kg", "value": 80, "unit": "µg·h/g"}, {"measurement": "AUC 0 to Infinity, Tumor", "setting": "dose = 40 mg/kg", "value": 107, "unit": "µg·h/g"}, {"measurement": "half-life", "setting": "mouse, heart, iv, 40 mg/kg, read-out: t 1/2, Heart (converted)", "value": 96, "unit": "min"}, {"measurement": "Tmax", "setting": "mouse, heart, iv, 40 mg/kg i.v., read-out: time of maximum concentration, heart", "value": 1.98, "unit": "min"}, {"measurement": "Kp at 0.033 h", "setting": "mouse, heart/plasma, iv, 40 mg/kg, 0.033 h, mice with tumors, single mice, read-out: Tissue/Plasma Ratio, HEART", "value": 0.45}, {"measurement": "Kp at 0.083 h", "setting": "mouse, heart/plasma, iv, 40 mg/kg, 0.083 h, mice with tumors, single mice, read-out: Tissue/Plasma Ratio, HEART", "value": 0.98}, {"measurement": "Kp at 0.25 h", "setting": "[2]", "value": 0.65}, {"measurement": "Kp at 0.5 h", "setting": "[2]", "value": 0.88}, {"measurement": "Kp at 0.75 h", "setting": "[2]", "value": 0.87}, {"measurement": "Kp at 1 h", "setting": "mouse, heart/plasma, iv, 40 mg/kg, 1 h, mice with tumors, single mice, read-out: Tissue/Plasma Ratio, HEART", "value": 0.77}, {"measurement": "half-life", "setting": "mouse, kidney, iv, 40 mg/kg, 40 mg/kg i.v., read-out: half-life of the distribution phase, kidney (converted)", "value": 3, "unit": "min"}, {"measurement": "half-life", "setting": "mouse, kidney, iv, 40 mg/kg, read-out: t 1/2, Kidney (converted)", "value": 162, "unit": "min"}, {"measurement": "Tmax", "setting": "mouse, kidney, iv, 40 mg/kg i.v., read-out: time of maximum concentration, kidney", "value": 1.98, "unit": "min"}, {"measurement": "Kp at 0.033 h", "setting": "mouse, kidney/plasma, iv, 40 mg/kg, 0.033 h, 40 μg/kg [sic], mice with tumors, single mice, read-out: Tissue/Plasma Ratio, KIDNEY", "value": 1.7}, {"measurement": "Kp at 0.083 h", "setting": "mouse, kidney/plasma, iv, 40 mg/kg, 0.083 h, 40 μg/kg [sic], mice with tumors, single mice, read-out: Tissue/Plasma Ratio, KIDNEY", "value": 2.4}, {"measurement": "Kp at 0.25 h", "setting": "[3]", "value": 1.35}, {"measurement": "Kp at 0.5 h", "setting": "[3]", "value": 1.88}, {"measurement": "Kp at 0.75 h", "setting": "[3]", "value": 2.44}]}]}
